What was measured:
[1] = test system: 2008/C13*, LoVo/LoVo-OXP, LoVo MDR; experiment: MTT cytotoxicity, comparison over the Table 2 cell lines; type: cell-based, human; settings: 2008 ovarian and LoVo colon sensitive cells
Description: (§1) After 24 h, the medium was removed and replaced with a fresh one containing the compound to be studied, at the appropriate concentration, dissolved in 0.9% sodium chloride solution just before use. Triplicate cultures were established for each treatment. After 72 h, each well was treated with […] of a 5 mg mL^−1 MTT saline solution and, after 5 h of incubation, 100 μL of a sodium dodecylsulfate (SDS) solution in 0.01 M HCl were added. After an overnight incubation, the inhibition of cell growth induced by the tested complexes was determined by measuring the absorbance of each well at 570 nm using a BioRad 680 microplate reader. Mean absorbance for each drug dose was expressed as percentage of the control and plotted vs. drug concentration. Dose-response curves were fitted and IC50 values were calculated with four parameter logistic model (4PL).
(§2) A LoVo cell line retaining a multidrug resistance phenotype was also considered (LoVo MDR). Cross-resistance profiles were evaluated by means of the resistance factor (RF), which is defined as the ratio between the IC50 value for the resistant cells and that arising from the sensitive cells (Table 2).

[2] = test system: LoVo MDR multidrug resistant colon carcinoma subline; experiment: MTT cytotoxicity assay, cross-resistance profile; type: cell-based, human; settings: for R.F. (resistance factor): IC50 LoVo-MDR / IC50 LoVo; for IC50: LoVo-MDR, 72 h, MTT
Description: (§3) Human breast (MCF-7) and colon (HCT-15, DDL1, SW480 and CaCo-2) carcinoma cell lines along with melanoma (A375) were obtained from the American Type Culture Collection (ATCC, Rockville, Md.). A431 are human cervical carcinoma cells kindly provided by Prof. F. Zunino (Molecular Pharmacology Unit, Experimental Oncology and Molecular Medicine, Istituto Nazionale dei Tumori, Milan, Italy). […] G. Marverti (Dept. of Biomedical Science, University of Modena, Italy). LoVo human colon-carcinoma cell line and its multidrug-resistant sublime (LoVo MDR) were kindly provided by Prof F. Maj one (Department of Biology of Padova University, Italy). […] Cell lines were maintained in the logarithmic phase at 37° C. in a 5% carbon dioxide atmosphere using the following culture media containing 10% fetal calf serum (Euroclone, Milan, Italy), antibiotics (50 units mL^−1 penicillin and 50 μg mL^−1 streptomycin), and 2 mM L-glutamine in: i) RPMI-1640 medium (Euroclone) for MCF-7, HCT-15, A431, DLD 1, 2008, and C13* cells; ii) F-12 HAM'S (Sigma Chemical Co.) for LoVo, LoVo MDR, and LoVo-OXP cells; iii) DMEM for A375 and SW 480 cells; and iv) MEM for CaCo-2 cells.
(§4) The growth inhibitory effect towards tumor cell lines was evaluated by means of the MTT (3-(4,5-dimethylthiazol-2-yl)-2,5-diphenyltetrazolium bromide) assay (Alley, M. C., et al., Cancer Res. 1988, 48, 589-601).
as §1, with “Briefly, depending upon the growth characteristics of the cell line, 3-8×10^3 cells well^−1, were seeded in 96-well microplates in growth medium (100 μL) and then incubated at 37° C. in a 5% carbon dioxide atmosphere. After 24” for “After 24”
as §2
In Table 2 are also reported the results obtained in a multidrug resistant (MDR) colon carcinoma subline, LoVo MDR, in which the resistance to doxorubicin, a drug belonging to the MDR spectrum, is associated with an overexpression of multi-specific drug transporters, such as the 170 kDa P-glycoprotein (P-gp) (Wersinger, C., et al., Amino Acids 2000, 19, 667-685). It is well known that acquired MDR, whereby cells become refractory to multiple drugs, poses most important challenge to the success of anticancer chemotherapy.

[3] = test system: C13* cisplatin resistant ovarian cancer cells; experiment: MTT cytotoxicity assay, cross-resistance profile; type: cell-based, human; settings: for IC50: C13*, 72 h, MTT; for R.F. (resistance factor): IC50 C13* / IC50 2008, cross-resistance with cisplatin
Description: as §3, §4
as §1, with “Briefly, depending upon the growth characteristics of the cell line, 3-8×10^3 cells well^−1, were seeded in 96-well microplates in growth medium (100 μL) and then incubated at 37° C. in a 5% carbon dioxide atmosphere. After 24” for “After 24”
as §2

[4] = test system: LoVo-OXP oxaliplatin resistant colon cancer cells; experiment: MTT cytotoxicity assay, cross-resistance profile; type: cell-based, human; settings: for R.F. (resistance factor): IC50 LoVo-OXP / IC50 LoVo, cross-resistance with oxaliplatin; for IC50: LoVo-OXP, 72 h, MTT
Description: as §3, §4
as §1, with “Briefly, depending upon the growth characteristics of the cell line, 3-8×10^3 cells well^−1, were seeded in 96-well microplates in growth medium (100 μL) and then incubated at 37° C. in a 5% carbon dioxide atmosphere. After 24” for “After 24”
as §2

[5] = test system: 2008 ovarian cancer cells; experiment: MTT cytotoxicity assay, cross-resistance profile; type: cell-based, human; settings: 72 h
Description: as §3, §4
as §1, with “Briefly, depending upon the growth characteristics of the cell line, 3-8×10^3 cells well^−1, were seeded in 96-well microplates in growth medium (100 μL) and then incubated at 37° C. in a 5% carbon dioxide atmosphere. After 24” for “After 24”
as §2

LoVo colon cancer cells = experiment: MTT cytotoxicity assay, cross-resistance profile; type: cell-based, human; settings: 72 h
Description: Human breast (MCF-7) and colon (HCT-15, DDL1, SW480 and CaCo-2) carcinoma cell lines along with melanoma (A375) were obtained from the American Type Culture Collection (ATCC, Rockville, Md.). A431 are human cervical carcinoma cells kindly provided by Prof. F. Zunino (Molecular Pharmacology Unit, Experimental Oncology and Molecular Medicine, Istituto Nazionale dei Tumori, Milan, Italy). […] G. Marverti (Dept. of Biomedical Science, University of Modena, Italy). LoVo human colon-carcinoma cell line and its multidrug-resistant sublime (LoVo MDR) were kindly provided by Prof F. Maj one (Department of Biology of Padova University, Italy).
as §4
as §1, with “Briefly, depending upon the growth characteristics of the cell line, 3-8×10^3 cells well^−1, were seeded in 96-well microplates in growth medium (100 μL) and then incubated at 37° C. in a 5% carbon dioxide atmosphere. After 24” for “After 24”
as §2

HCT-15 = experiment: MTT cytotoxicity assay, 72 h; type: cell-based, human; settings: HCT-15, colon
Description: as §3, §4
as §1, with “Briefly, depending upon the growth characteristics of the cell line, 3-8×10^3 cells well^−1, were seeded in 96-well microplates in growth medium (100 μL) and then incubated at 37° C. in a 5% carbon dioxide atmosphere. After 24” for “After 24”
(§5) Compound 1 was prepared for the first time almost twenty years ago however, until now, it had been tested (both in vitro and in vivo) only in a limited number of tumor cell lines (Hoeschele, J. D., et al., J. Med. Chem. 1994, 37, 2630-2636 and Shamsuddin, S., et al., J. Inorg. Biochem. 1996, 61, 291-301). The Pt(II) and Pt(IV) complexes containing isomeric forms of diaminocyclohexane, [PtCl2(cis-1,4-DACHA](1), [PtCl2(1R,2R-DACH)] (2), [Pt(OXA)(cis-1,4-DACH)] (3), cis,trans,cis-[Pt^IVCl2(OH)2(cis-1,4-DACH)] (4), cis,trans,cis-[Pt^IVCl2(DCA)2(cis-1,4-DACH)] (5), [Pt(CBDCA)(cis-1,4-DACH)] (6), cis,trans,cis-[Pt^IV(OXA)(OH)2(cis-1,4-DACH)] (7), and cis,trans,cis-[Pt^IV(OXA)(DCA)2(cis-1,4-DACH)] (8) were evaluated for their cytotoxic activity towards a panel of human tumor cell lines including cervical (A431), breast (MCF-7), cancers along with a melanoma (A375) and 4 different colon cancer cell lines corresponding to different stages of the disease progression (HCT-15, SW480, CaCo-2, DLD-1). The cytotoxicity was evaluated by means of the MTT test for 72 h treatment with increasing concentrations of the tested compounds.

SW480 = experiment: MTT cytotoxicity assay, 72 h; type: cell-based, human; settings: SW480, colon
Description: as §3, §4
as §1, with “Briefly, depending upon the growth characteristics of the cell line, 3-8×10^3 cells well^−1, were seeded in 96-well microplates in growth medium (100 μL) and then incubated at 37° C. in a 5% carbon dioxide atmosphere. After 24” for “After 24”
as §5

DLD-1 = experiment: MTT cytotoxicity assay, 72 h; type: cell-based, human; settings: DLD-1, colon
Description: as §3, §4
as §1, with “Briefly, depending upon the growth characteristics of the cell line, 3-8×10^3 cells well^−1, were seeded in 96-well microplates in growth medium (100 μL) and then incubated at 37° C. in a 5% carbon dioxide atmosphere. After 24” for “After 24”
as §5

MCF-7 = experiment: MTT cytotoxicity assay, 72 h; type: cell-based, human; settings: MCF-7, breast
Description: as §3, §4
as §1, with “Briefly, depending upon the growth characteristics of the cell line, 3-8×10^3 cells well^−1, were seeded in 96-well microplates in growth medium (100 μL) and then incubated at 37° C. in a 5% carbon dioxide atmosphere. After 24” for “After 24”
as §5

A431 = experiment: MTT cytotoxicity assay, 72 h; type: cell-based, human; settings: A431, cervix
Description: as §3, §4
as §1, with “Briefly, depending upon the growth characteristics of the cell line, 3-8×10^3 cells well^−1, were seeded in 96-well microplates in growth medium (100 μL) and then incubated at 37° C. in a 5% carbon dioxide atmosphere. After 24” for “After 24”
as §5

A375 = experiment: MTT cytotoxicity assay, 72 h; type: cell-based, human; settings: A375, skin
Description: as §3, §4
as §1, with “Briefly, depending upon the growth characteristics of the cell line, 3-8×10^3 cells well^−1, were seeded in 96-well microplates in growth medium (100 μL) and then incubated at 37° C. in a 5% carbon dioxide atmosphere. After 24” for “After 24”
as §5

[6] = test system: panel of human tumor cell lines (A431, MCF-7, A375, HCT-15, SW480, CaCo-2, DLD-1); experiment: MTT cytotoxicity, comparison over the Table 1 panel; type: cell-based; settings: average over seven cell lines of Table 1
Description: as §1
The cytotoxicity was evaluated by means of the MTT test for 72 h treatment with increasing concentrations of the tested compounds.

SMILES	cytotoxic activity towards sensitive lines compared with reference drugs [1]	R.F. (resistance factor) [2]	IC50 [2]	IC50 [3]	R.F. (resistance factor) [3]	R.F. (resistance factor) [4]	IC50 [4]	IC50 [5]	IC50 (LoVo colon cancer cells)	IC50 (HCT-15)	IC50 (SW480)	IC50 (DLD-1)	IC50 (MCF-7)	IC50 (A431)	IC50 (A375)	average cytotoxic activity compared with reference drugs [6]
O=C1[O][Pt]2([OH])([OH])([NH]C3CCC(CC3)[NH]2)[O]C1=O [Compound 7, (OC-6-33)-[ethanedioato(2)-O,O′](cis-1,4-cyclohexanediamine-N,N′)dihydroxyplatinum]	less effective than oxaliplatin and cisplatin	1.1	69.4 ± 4.83 µM	78.7 ± 4.6 µM	1.3	1.1	66.9 ± 5.12 µM	59.5 ± 3.64 µM	61.2 ± 5.51 µM	72.1 ± 4.74 µM	69.4 ± 11.5 µM	82.2 ± 5.54 µM	112 ± 9.52 µM	59.5 ± 3.64 µM	75.1 ± 6.54 µM	–
O=C1[O][Pt]2([NH][C@H]3CC[C@H](CC3)[NH]2)[O]C1=O [Compound 3, [SP-4-2-(cis)]-(1,4,cyclohexanediamine-N,N′)[ethanedioato(2)-O,O^1]platinum]	less effective than oxaliplatin and cisplatin towards ovarian sensitive cell line and rather similar to cisplatin against LoVo colon cancer cells	–	–	–	–	–	–	–	–	–	–	–	–	–	–	lower than that of oxaliplatin and comparable to that of compound 2 and cisplatin
O=C1[O][Pt]2([O]C(=O)C(Cl)Cl)([O]C(=O)C(Cl)Cl)([NH]C3CCC(CC3)[NH]2)[O]C1=O [Compound 8, (OC-6-33)-[ethanedioato(2)-O,O′](cis-1,4-cyclohexanediamine-N,N′)bisdichloroacetateplatinum]	lower than cisplatin and oxaliplatin in ovarian sensitive cancer cells, similar than cisplatin against colon sensitive cells	1.3	11.9 ± 3.33 µM	9.12 ± 2.79 µM	0.8	1.2	11.1 ± 3.05 µM	11.1 ± 3.28 µM	9.08 ± 2.16 µM	13.7 ± 3.81 µM	10.6 ± 2.01 µM	8.26 ± 3.24 µM	12.6 ± 2.47 µM	7.41 ± 2.11 µM	4.99 ± 1.15 µM	–
